pIC50: −log10 of the molar value. Where a name gives a salt, the structure may show the parent alone. Read-outs that look alike come from different tables or passages of the source. Blank lines part the entries; values can stand above or below the molecule they belong to.
Key:
[1] = biological target: T1, baculovirus-expressed ALK (Homo sapiens, UniProt Q9UM73); assay: ALK Kinase Assay (ELISA-type, time-resolved fluorescence); assay type: biochemical
T1 construct: host or cells: baculovirus expression system
T1 sequence (Q9UM73 19-1620): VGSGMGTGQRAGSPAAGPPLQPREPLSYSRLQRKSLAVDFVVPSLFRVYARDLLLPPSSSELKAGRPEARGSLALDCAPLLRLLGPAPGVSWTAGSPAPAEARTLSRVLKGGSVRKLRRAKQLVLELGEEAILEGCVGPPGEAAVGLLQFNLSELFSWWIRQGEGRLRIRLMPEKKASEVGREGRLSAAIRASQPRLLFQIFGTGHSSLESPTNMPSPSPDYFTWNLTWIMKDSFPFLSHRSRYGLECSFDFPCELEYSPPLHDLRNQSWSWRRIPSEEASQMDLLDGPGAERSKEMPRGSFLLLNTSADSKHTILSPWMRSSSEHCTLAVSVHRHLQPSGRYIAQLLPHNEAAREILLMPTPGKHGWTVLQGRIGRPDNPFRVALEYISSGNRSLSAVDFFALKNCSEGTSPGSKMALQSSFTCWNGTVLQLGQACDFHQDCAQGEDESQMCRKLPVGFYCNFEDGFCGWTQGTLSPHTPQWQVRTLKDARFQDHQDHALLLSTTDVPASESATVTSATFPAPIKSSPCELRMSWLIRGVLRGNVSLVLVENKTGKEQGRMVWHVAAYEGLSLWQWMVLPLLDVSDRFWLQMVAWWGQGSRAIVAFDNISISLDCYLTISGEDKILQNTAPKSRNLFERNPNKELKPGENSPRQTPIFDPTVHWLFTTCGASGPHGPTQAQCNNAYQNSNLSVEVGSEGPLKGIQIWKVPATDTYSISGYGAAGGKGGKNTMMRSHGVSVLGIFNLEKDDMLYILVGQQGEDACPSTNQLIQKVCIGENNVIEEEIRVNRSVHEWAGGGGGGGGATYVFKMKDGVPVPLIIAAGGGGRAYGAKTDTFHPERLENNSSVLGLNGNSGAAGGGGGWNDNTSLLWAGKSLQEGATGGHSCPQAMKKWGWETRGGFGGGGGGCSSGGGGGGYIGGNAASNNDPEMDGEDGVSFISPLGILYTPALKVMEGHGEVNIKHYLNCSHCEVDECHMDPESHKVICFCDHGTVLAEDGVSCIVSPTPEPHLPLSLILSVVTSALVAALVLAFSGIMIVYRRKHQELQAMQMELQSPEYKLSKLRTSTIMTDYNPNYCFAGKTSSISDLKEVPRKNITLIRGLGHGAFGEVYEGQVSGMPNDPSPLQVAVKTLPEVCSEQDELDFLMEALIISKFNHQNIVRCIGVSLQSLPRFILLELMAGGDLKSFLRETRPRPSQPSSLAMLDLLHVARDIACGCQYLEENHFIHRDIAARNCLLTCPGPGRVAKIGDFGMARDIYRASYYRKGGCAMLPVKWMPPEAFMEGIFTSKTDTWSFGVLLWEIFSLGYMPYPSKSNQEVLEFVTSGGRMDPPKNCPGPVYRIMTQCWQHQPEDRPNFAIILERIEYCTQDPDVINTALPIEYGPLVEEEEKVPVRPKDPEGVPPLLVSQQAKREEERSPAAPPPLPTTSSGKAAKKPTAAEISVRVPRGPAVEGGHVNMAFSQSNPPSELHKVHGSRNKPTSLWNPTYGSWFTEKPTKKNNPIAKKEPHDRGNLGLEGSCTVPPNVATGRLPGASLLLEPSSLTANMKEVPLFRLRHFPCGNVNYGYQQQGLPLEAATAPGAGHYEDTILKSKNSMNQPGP
How it was run: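 Substrate coating: phospholipase C-γ, 10 μg/mL in TBS. Kinase step: 30 ng/ml ALK, 15 min, 37° C. Detection and analysis: Eu-N1 PT66 antibody, with IC50 fitted as a sigmoidal variable-slope dose-response curve.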

[2] = biological target: T2, c-Met (cytoplasmic domain) (Homo sapiens, UniProt P08581); assay: c-Met Kinase Assay (same methods as for ALK, with modifications); assay type: biochemical
T2 construct: 10 ng/mL c-Met (cytoplasmic domain, Invitrogen Corporation #PV3143); purchased Invitrogen Corporation PV3143
T2 sequence (P08581 956-1390 limits assumed): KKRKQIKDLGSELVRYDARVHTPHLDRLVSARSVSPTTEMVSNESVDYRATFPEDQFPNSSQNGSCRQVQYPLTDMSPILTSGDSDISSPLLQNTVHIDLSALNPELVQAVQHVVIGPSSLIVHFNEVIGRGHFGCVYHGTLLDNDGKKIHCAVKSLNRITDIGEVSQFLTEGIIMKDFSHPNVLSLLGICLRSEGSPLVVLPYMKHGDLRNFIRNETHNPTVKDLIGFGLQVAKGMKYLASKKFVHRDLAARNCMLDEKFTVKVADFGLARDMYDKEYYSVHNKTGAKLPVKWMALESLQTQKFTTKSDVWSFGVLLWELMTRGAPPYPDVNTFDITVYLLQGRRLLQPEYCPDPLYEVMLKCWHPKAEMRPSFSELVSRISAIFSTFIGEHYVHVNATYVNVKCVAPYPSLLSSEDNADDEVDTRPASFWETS
How it was run: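 This plate-based kinase format uses immobilized phospholipase C-γ as substrate, phosphorylated by c-Met cytoplasmic domain (10 ng/mL) at 37° C for 15 minutes.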

[3] = ALK kinase inhibition, 1 μM ATP, read-out: ALK Activity
[4] = c-Met kinase inhibition, 1 μM ATP, read-out: cMet Activity
[5] = 1 μM ATP (Km level), 30 ng/ml ALK, 37° C., 15 minutes, read-out: ALK Activity (ALK kinase inhibition, IC50 class)
[6] = 1 μM ATP (Km level), 10 ng/mL c-Met, read-out: cMet Activity (c-Met kinase inhibition, IC50 class)
[7] = ALK kinase inhibition, 1 μM ATP (Km level), read-out: ALK Activity
[8] = c-Met kinase inhibition, 1 μM ATP (Km level), read-out: cMet Activity
[9] = 1 μM ATP (Km level), read-out: ALK Activity (ALK Kinase Inhibition, IC50)
[10] = 1 μM ATP (Km level), read-out: cMet Activity (c-Met Kinase Inhibition, IC50)

Compound: COc1cc2c(cc1Nc1ncc(Cl)c(N[C@H]3[C@@H](C(N)=O)[C@@H]4C=C[C@H]3C4)n1)CCN(CC(C)O)CC2 (stereo partly drawn) [Example 1548, (1S,2S,3R,4R)-3-{5-Chloro-2-[3-(2-hydroxy-propyl)-8-methoxy-2,3,4,5-tetrahydro-1H-3-benzazepin-7-ylamino]-pyrimidin-4-ylamino}-bicyclo[2.2.1]hept-5-ene-2-carboxylic acid amide]
pIC50 [1, 3]: > 7.00
pIC50 [2, 4]: < 5.00

Compound: CN1CCNCc2ccc(Nc3ncc(Cl)c(Nc4ccccc4NS(C)(=O)=O)n3)cc21 [Example 471, N-{2-[5-Chloro-2-(1-methyl-2,3,4,5-tetrahydro-1H-benzo[e][1,4]diazepin-8-ylamino)-pyrimidin-4-ylamino]-phenyl}-methanesulfonamide hydrochloride]
pIC50 [1, 7]: > 7.00
pIC50 [2, 8]: 5.00 to 6.00

Compound: COc1c(Nc2ncc(Cl)c(N[C@@H]3CCCC[C@H]3NS(C)(=O)=O)n2)ccc2c1CCCC(NCCO)C2 (stereo partly drawn) [Example 965, N-((1R,2R)-2-{5-Chloro-2-[6-(2-hydroxy-ethylamino)-1-methoxy-6,7,8,9-tetrahydro-5H-benzocyclohepten-2-ylamino]-pyrimidin-4-ylamino}-cyclohexyl)-methanesulfonamide]
pIC50 [1, 9]: > 7.00
pIC50 [2, 10]: < 5.00

Compound: CCN1C(=O)CCCc2c1ccc(Nc1ncc(Cl)c(N[C@@H]3[C@H](C(N)=O)[C@H]4C=C[C@@H]3C4)n1)c2OC [Example 132, (1R,2R,3S,4S)-3-[5-Chloro-2-(1-ethyl-6-methoxy-2-oxo-2,3,4,5-tetrahydro-1H-benzo[b]azepin-7-ylamino)-pyrimidin-4-ylamino]-bicyclo[2.2.1]hept-5-ene-2-carboxylic acid amide]
pIC50 [1, 7]: 5.00 to 6.00
pIC50 [2, 8]: < 5.00

Compound: CNC(=O)c1cccc(C(F)(F)F)c1Nc1nc(Nc2ccc3c(c2)CCOC(=O)N3C)ncc1Cl [Example 1753, 2-[5-Chloro-2-(5-methyl-6-oxo-5,6,8,9-tetrahydro-7-oxa-5-aza-benzocyclohepten-2-ylamino)-pyrimidin-4-ylamino]-N-methyl-3-trifluoromethyl-benzamide]
pIC50 [1, 3]: < 5.00
pIC50 [2, 4]: 6.00 to 7.00

Compound: CCN1C(=O)CCCc2ccc(Nc3ncc(Br)c(Nc4c(F)cccc4C(=O)NC)n3)cc21 [Example 359, 2-[5-Bromo-2-(1-ethyl-2-oxo-2,3,4,5-tetrahydro-1H-benzo[b]azepin-8-ylamino)-pyrimidin-4-ylamino]-3-fluoro-N-methyl-benzamide]
pIC50 [1, 7]: > 7.00
pIC50 [2, 8]: > 7.00

Compound: C#CCNC(=O)c1cccc(F)c1Nc1nc(Nc2ccc3c(c2)NC(=O)CCC3(C)C)ncc1Cl [Example 1406, 2-[5-Chloro-2-(5,5-dimethyl-2-oxo-2,3,4,5-tetrahydro-1H-benzo[b]azepin-8-ylamino)-pyrimidin-4-ylamino]-3-fluoro-N-prop-2-ynyl-benzamide]
pIC50 [1, 5]: 6.00 to 7.00
pIC50 [2, 6]: > 7.00

Compound: CCN1CCc2ccc(Nc3ncc(Cl)c(Nc4ccccc4NS(C)(=O)=O)n3)c(OC)c2CC1 [Example 233, N-{2-[5-Chloro-2-(3-ethyl-6-methoxy-2,3,4,5-tetrahydro-1H-benzo[d]azepin-7-ylamino)-pyrimidin-4-ylamino]-phenyl}-methanesulfonamide]
pIC50 [1, 7]: > 7.00
pIC50 [2, 8]: < 5.00

Compound: CNC(=O)c1scc(C)c1Nc1nc(Nc2ccc3c(c2)-n2ccnc2CCC3)ncc1Cl [Example 1838, 3-[5-Chloro-2-(5,6-dihydro-4H-3,10b-diaza-benzo[e]azulen-9-ylamino)-pyrimidin-4-ylamino]-4-methyl-thiophene-2-carboxylic acid methylamide]
pIC50 [1, 3]: 6.00 to 7.00
pIC50 [2, 4]: > 7.00

Compound: CNC(=O)c1sccc1Nc1nc(Nc2ccc3c(c2)N(C(C)=O)CC(=O)NC3)ncc1Cl [Example 1878, 3-[2-(1-Acetyl-3-oxo-2,3,4,5-tetrahydro-1H-benzo[e][1,4]diazepin-8-ylamino)-5-chloro-pyrimidin-4-ylamino]-thiophene-2-carboxylic acid methyl amide]
pIC50 [1, 7]: 6.00 to 7.00
pIC50 [2, 8]: > 7.00

Compound: COCCN1CCc2ccc(Nc3ncc(Cl)c(Nc4ccccc4-c4ncccc4C(F)(F)F)n3)cc2CC1 [Example 992, 5-Chloro-N*2*-[3-(2-methoxy-ethyl)-2,3,4,5-tetrahydro-1H-benzo[d]azepin-7-yl]-N*4*-[2-(3-trifluoromethyl-pyridin-2-yl)-phenyl]-pyrimidine-2,4-diamine]
pIC50 [1, 9]: > 7.00
pIC50 [2, 10]: 5.00 to 6.00

Compound: Cc1nnc(-c2cccc(F)c2Nc2nc(Nc3ccc4c(c3)CCOC(=O)N4C)ncc2Cl)o1 [Example 1787, 2-{5-Chloro-4-[2-fluoro-6-(5-methyl-[1,3,4]oxadiazol-2-yl)-phenylamino]-pyrimidin-2-ylamino}-5-methyl-8,9-dihydro-5H-7-oxa-5-aza-benzocyclohepten-6-one]
pIC50 [1, 3]: 5.00 to 6.00
pIC50 [2, 4]: 6.00 to 7.00

Further lines, results first:

pIC50 [1, 3]: > 7.00
pIC50 [2, 4]: 5.00 to 6.00
Compound: COc1cc(N2CCOCC2)ccc1Nc1nc(Nc2ccc3c(c2)N(CCN(C)C)CCCC3(C)C)ncc1Cl [Example 1641, 5-Chloro-N*2*-[1-(2-dimethylamino-ethyl)-5,5-dimethyl-2,3,4,5-tetrahydro-1H-benzo[b]azepin-8-yl]-N*4*-(2-methoxy-4-morpholin-4-yl-phenyl)-pyrimidine-2,4-diamine]

pIC50 [1, 5]: 5.00 to 6.00
pIC50 [2, 6]: 5.00 to 6.00
Compound: CNC(=O)c1ccc(NC(C)=O)cc1Nc1nc(Nc2ccc3c(c2)C(C)(C)CCC(=O)N3)ncc1Cl [Example 1244, 4-Acetylamino-2-[5-chloro-2-(5,5-dimethyl-2-oxo-2,3,4,5-tetrahydro-1H-1-benzazepin-7-ylamino)-pyrimidin-4-ylamino]-N-methyl-benzamide]

pIC50 [1, 5]: > 7.00
pIC50 [2, 6]: 5.00 to 6.00
Compound: COc1cc2c(cc1Nc1ncc(Cl)c(Nc3ccccc3S(=O)(=O)N(C)C)n1)CCN(CCS(C)(=O)=O)CC2 [Example 1152, 2-{5-Chloro-2-[3-(2-methanesulfonyl-ethyl)-8-methoxy-2,3,4,5-tetrahydro-1H-benzo[d]azepin-7-ylamino]-pyrimidin-4-ylamino}-N,N-dimethyl-benzenesulfonamide]

pIC50 [1, 9]: > 7.00
pIC50 [2, 10]: < 5.00
Compound: CNC(=O)CN1CCc2cc(Nc3ncc(F)c(Nc4ccc(N5CCN(C)CC5)cc4OC)n3)c(OC)cc2CC1 [Example 797, 2-(7-{5-Fluoro-4-[2-methoxy-4-(4-methyl-piperazin-1-yl)-phenylamino]-pyrimidin-2-ylamino}-8-methoxy-1,2,4,5-tetrahydro-benzo[d]azepin-3-yl)-N-methyl-acetamide]

pIC50 [1, 9]: 6.00 to 7.00
pIC50 [2, 10]: < 5.00
Compound: CC(C)S(=O)(=O)c1ccccc1Nc1nc(Nc2cccc3c2OCCCC3(C)C)ncc1Cl [Example 878, 5-Chloro-N*2*-(5,5-dimethyl-2,3,4,5-tetrahydro-benzo[b]oxepin-9-yl)-N*4*-[2-(propane-2-sulfonyl)-phenyl]-pyrimidine-2,4-diamine]

pIC50 [1, 9]: > 7.00
pIC50 [2, 10]: 5.00 to 6.00
Compound: COc1ccccc1Nc1nc(Nc2ccc3c(c2)CCC(NCC(F)F)CC3)ncc1Cl (stereo not shown) [Example 663, 5-Chloro-N*2*-[7-(2,2-difluoro-ethylamino)-6,7,8,9-tetrahydro-5H-benzocyclohepten-2-yl]-N*4*-(2-methoxy-phenyl)-pyrimidine-2,4-diamine]

pIC50 [1, 3]: > 7.00
pIC50 [2, 4]: > 7.00
Compound: COCCN1CCc2ccc(Nc3ncc(Cl)c(Nc4ccccc4S(=O)(=O)N4CCCC4)n3)cc2CC1 [Example 1730, 5-Chloro-N*2*-[3-(2-methoxy-ethyl)-2,3,4,5-tetrahydro-1H-benzo[d]azepin-7-yl]-N*4*-[2-(pyrrolidine-1-sulfonyl)-phenyl]-pyrimidine-2,4-diamine]

pIC50 [1, 3]: > 7.00
pIC50 [2, 4]: > 7.00
Compound: CCN1C(=O)CCC(C)(C)c2ccc(Nc3ncc(Cl)c(Nc4ccccc4C(=O)NC)n3)cc21 [Example 1589, 2-[5-Chloro-2-(1-ethyl-5,5-dimethyl-2-oxo-2,3,4,5-tetrahydro-1H-benzo[b]azepin-8-ylamino)-pyrimidin-4-ylamino]-N-methyl-benzamide]

pIC50 [1, 9]: > 7.00
pIC50 [2, 10]: > 7.00
Compound: COCCN1CCc2ccc(Nc3ncc(Cl)c(Nc4c(F)cccc4OCC#N)n3)cc2CC1 [Example 931, (2-{5-Chloro-2-[3-(2-methoxy-ethyl)-2,3,4,5-tetrahydro-1H-3-benzazepin-7-ylamino]-pyrimidin-4-ylamino}-3-fluoro-phenoxy)-acetonitrile]

pIC50 [1, 5]: > 7.00
pIC50 [2, 6]: < 5.00
Compound: CNc1nc(N2CCOCC2)ccc1Nc1nc(Nc2cc3c(cc2OC)CCN(CC(=O)N(C)C)CC3)ncc1Cl [Example 1209, 2-{7-[5-Chloro-4-(2-methylamino-6-morpholin-4-yl-pyridin-3-ylamino)-pyrimidin-2-ylamino]-8-methoxy-1,2,4,5-tetrahydro-benzo[d]azepin-3-yl}-N,N-dimethyl-acetamide]

pIC50 [1, 3]: 6.00 to 7.00
pIC50 [2, 4]: 6.00 to 7.00
Compound: CNC(=O)c1sccc1Nc1nc(Nc2ccc3c(c2)N(C(=O)CN2CCCC2)CCCO3)ncc1Cl [Example 1705, 3-{5-Chloro-2-[9-(2-pyrrolidin-1-yl-acetyl)-6,7,8,9-tetrahydro-5-oxa-9-aza-benzocyclohepten-2-ylamino]-pyrimidin-4-ylamino}-thiophene-2-carboxylic acid methylamide]

— patent publication US8148391B2 (Cephalon, Inc., priority 2006, dated 2012)
